{"source": "patent US20120020946A1", "about": "“Methods for Inactivating Viruses” (priority 2009, published 2012)", "key": {"[1]": {"system": "RD cell line (human rhabdomyosarcoma)"}, "[2]": {"system": "Poliovirus Sabin (Type 2H.010704)", "format": "cell-based"}}, "data": [{"compound": "OCl", "note": "[Hypochlorite, Sodium hypochlorite]", "values": [{"measurement": "cytotoxicity score, no virus added", "setting": "[1]", "value": "N"}, {"measurement": "infectivity score, virus added", "setting": "[2]", "value": "N"}]}]}
